The test system of test [1] is HCT116. The test can be described thus: efficacy (fitted maximal change in viability relative to DMSO control); higher = less cytotoxic (negative = loss of viability). To be noted: 48 h.
For test [2], the system named is HCT116. The test can be described thus: AC50 cell viability (CellTiter-Glo); higher = less potent. To be noted: 48 h. (In general: ATP-based viability assays read luminescence as a measure of living cells.)
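Wherever AC50 cell viability (CellTiter-Glo) is given: HCT116 colorectal carcinoma cells screened at five concentrations per compound, luminescent viability scaled between DMSO wells and empty wells on each plate, curves fitted per compound.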
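Wherever efficacy (fitted maximal change in viability relative to DMSO control) is given: Luminescence-based viability readout, five doses per compound, normalized against on-plate DMSO and empty-well controls, followed by dose-response curve fitting for every drug.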

In the case of `CC#C[C@@H](CC(=O)O)c1ccc(OCc2cccc(-c3ccc(C(F)(F)F)cc3)c2)cc1` [AMG-837], the efficacy in the test on HCT116 [1] is -40.8%. In addition, in the test with HCT116 [2], the AC50 cell viability was 20.9 µM.
Taken in the same sequence, the figures for `Cc1csc(-c2nnc(Nc3ccc(Oc4ncccc4-c4ccnc(N)n4)cc3)c3ccccc23)c1` [AMG-900] were -52.9% and 16.6 µM.
Taken in the same sequence, the figures for `CNc1nccc(-c2cccnc2Oc2cc(C(=O)Nc3cccc(C(F)(F)F)c3)ccc2C)n1` [AMG-Tie2-1] were -78.8% and 1.66 µM.
Taken in the same sequence, the figures for `Cc1[nH]c2ccc(F)cc2c1-c1nc2c3cccnc3c3ncccc3c2[nH]1` [APTO-253] were -77.4% and 0.679 µM.
Turning to `c1cc(Nc2cc(C3CC3)n[nH]2)nc(Nc2ccc3nc[nH]c3c2)n1` [APY29], the efficacy in the test with HCT116 [1] was -66.4%. Besides, the AC50 cell viability in the test on HCT116 [2] is 0.235 µM.
Taken in the same sequence, the figures for `NCCCN([C@H](CC#C)C/1=N/C2=C(C=CC(=C2)Cl)C(=O)N1NC3=CC=CC=C3)C(=O)C4=CC=CC(=C4F)Cl` [ARQ-621] were -102% and 0.468 µM.
Taken in the same sequence, the figures for `Cn1cnc2c(F)c(Nc3ccc(Br)cc3F)c(C(=O)NOCCO)cc21` [ARRY-162] were -60.8% and 0.468 µM.
Consider `C[C@H](NC(=O)[C@@H]1C[C@@H](O)CN1C(=O)[C@@H](NC(=O)COCCCOCCNC(=O)C[C@@H]2\N=C(C3=CC=C(Cl)C=C3)/C4=C(SC(=C4C)C)[N]5C(=NN=C25)C)C(C)(C)C)C6=CC=C(C=C6)C7=C(C)N=CS7` [ARV-771], for which the efficacy with HCT116 [1] is -91%. The same compound yielded an AC50 cell viability in the test with HCT116 [2] of 0.148 µM.
Taken in the same sequence, the figures for `CC1=C(C)C\2=C(S1)[N]3C(=NN=C3[C@H](CC(=O)NC4=CC=C(OCCOCCOCCOCCNC5=CC=CC6=C5C(=O)N(C7CCC(=O)NC7=O)C6=O)C=C4)\N=C2C8=CC=C(Cl)C=C8)C` (stereo partly specified) [ARV-825] were -73.3% and 0.263 µM.
In the same order, the values of `COc1cc(N2CCC(N3CCN(C)CC3)CC2)ccc1Nc1ncnc(Nc2ccccc2[S+](=O)([O-])C(C)C)n1` [ASP-3026] are -82.2% and 4.68 µM.
In the same order, the values of `C=CC(=O)Nc1ccc2ncnc(Nc3ccc(OCc4cccc(F)c4)c(Cl)c3)c2c1` [AST-1306] are -98.3% and 11.8 µM.
Turning to `O=C(NC1CCNCC1)c1n[nH]cc1NC(=O)c1c(Cl)cccc1Cl` [AT-7519], the efficacy in the test on HCT116 [1] is -65.1%. Moreover, the AC50 cell viability in the test with HCT116 [2] was 0.235 µM.
For the compound `Clc1ccc(C2(c3ccc(-c4cn[nH]c4)cc3)CCNCC2)cc1` [AT-7867], the efficacy in the test on HCT116 [1] was -87.4%. The same compound had an AC50 cell viability in the test on HCT116 [2] of 18.6 µM.
With `O=C(Nc1c[nH]nc1-c1nc2cc(CN3CCOCC3)ccc2[nH]1)NC1CC1` [AT-9283], the efficacy with HCT116 [1] is -62.5%. Also, the AC50 cell viability in the test on HCT116 [2] was found to be 0.417 µM.
Taken in the same sequence, the figures for `C=CC(=O)Nc1cc2c(Nc3ccc(F)c(Cl)c3)ncnc2cc1C#CC(C)(C)N1CCN(C)CC1` [AV-412] were -104% and 9.34 µM.
In the same order, the values of `CC[C@H](CC#N)OC(=O)N[C@@H](C)c1cccc(NC(=O)Nc2ccc(-c3cnco3)c(OC)c2)c1` [AVN944] are -72.8% and 0.332 µM.
In the same order, the values of `CC(C)Oc1cc(Nc2nc(N[C@@H](C)c3ccc(F)cn3)ncc2Cl)n[nH]1` [AZ-23] are -67.9% and 5.25 µM.
As for `CCCc1cc(C(=O)N[C@H](Cc2ccc(-c3cccc(OC(F)(F)F)c3)nc2)C(=O)N[C@@H]2CCNC2)sc1C` [AZ-82], in the test with HCT116 [1], the efficacy was -97.3%. The AC50 cell viability in the test on HCT116 [2] was 8.33 µM.
In the same order, the values of `COc1cc(N2CCN(C)CC2)ccc1Nc1nccc(-c2cn(C)c3cnccc23)n1` [AZ-191] are -88.4% and 18.6 µM.
In the same order, the values of `CN1\C=N/C2=CC=C(NC3=CC(=CC=C3C)NC(=O)C4=CC(=CC=C4)C(C)(C)C#N)C=C2C1=O` [AZ-628] are -50.6% and 0.332 µM.
Taken in the same sequence, the figures for `Cc1cc(Nc2nc(N[C@@H](C)c3ccc(F)cc3)c(C#N)cc2F)n[nH]1` [AZ-960] were -100% and 5.9 µM.
Consider `COc1cc(OC2CCN(C)CC2)ccc1Nc1ncc2c(n1)n(C1CCCC1)c(=O)n2C` [AZ-3146], for which the efficacy in the test on HCT116 [1] was -102%. This compound also returned an AC50 cell viability with HCT116 [2] of 5.9 µM.
Take `O=C1N\N=C(\CC2=CC=CC(=C2)C(=O)N3CCN(CC3)C4=NC=CC=C4C#N)C5=CC=CC=C15` [AZ-9482]: the efficacy in the test with HCT116 [1] was -54.2%. The AC50 cell viability in the test on HCT116 [2] came to 5.25 µM.
With `NC(=O)Nc1cc(-c2ccc(CN3CCOCC3)cc2)sc1C(N)=O` [AZ-TAK1 Inhibitor], the efficacy in the test with HCT116 [1] is -71%. The AC50 cell viability in the test with HCT116 [2] was determined as 5.25 µM.
For `CN(C)CCCOc1ccc(-c2ccc3ncc4c(c3c2)n(C2CCOCC2)c(=O)n4C)cn1` [AZD-0156], the efficacy in the test with HCT116 [1] is -86%. Further, the AC50 cell viability in the test on HCT116 [2] amounted to 7.23 µM.
In the same order, the values of `NC1CCCN(c2c(/C=C3\SC(=O)NC3=O)cccc2-c2ccccc2)C1` (stereo unspecified) [AZD-1208] are -67.1% and 23.5 µM.
In the same order, the values of `Cc1cc(Nc2nc(N[C@@H](C)c3ncc(F)cn3)ncc2Cl)n[nH]1` [AZD-1480] are -66.2% and 5.25 µM.
In the same order, the values of `C[C@H]1COCCN1c1cc(C2([S+](=O)([O-])C3CC3)CC2)nc(-c2ccc(NC(=S)NCCO)cc2)n1` [AZD-3147] are -113% and 7.42 µM.
On to `COc1cc(N2CCC(N)CC2)ccc1Nc1ncc(Cl)c(-c2c[nH]c3ccccc23)n1` [AZD-3463], for which the efficacy in the test on HCT116 [1] is -137%. Also, in the test on HCT116 [2], the AC50 cell viability turned out to be 5.9 µM.
Taken in the same sequence, the figures for `COc1cc(CCc2cc(NC(=O)c3ccc(N4C[C@@H](C)N[C@@H](C)C4)cc3)n[nH]2)cc(OC)c1` [AZD-4547] were -98.5% and 10.5 µM.
`COc1nnc2ccc(N3CCC(c4ccc(OCCN5CCN(C)C(=O)[C@H]5C)cc4)CC3)nn12` [AZD-5153 6-Hydroxy-2-naphthoic acid]: the efficacy in the test on HCT116 [1] is -68.6%. For the same compound, the AC50 cell viability in the test on HCT116 [2] was 0.0833 µM.
In the same order, the values of `NC1(C(=O)N[C@@H](CCO)c2ccc(Cl)cc2)CCN(c2ncnc3[nH]ccc23)CC1` [AZD-5363] are -83.1% and 11.8 µM.
On to `Cc1ncc(-c2ccnc(Nc3ccc([S+](C)(=O)[O-])cc3)n2)n1C(C)C` [AZD-5438], for which the efficacy with HCT116 [1] is -62.2%. The compound also yielded an AC50 cell viability with HCT116 [2] of 0.525 µM.
In the same order, the values of `C[C@@H](NC1=CC=CC=C1C(O)=O)C/2=C/C(=C\N3C(=O)/C=C(\N=C23)N4CCOCC4)C` [AZD-6482] are -52.7% and 10.5 µM.
Taken in the same sequence, the figures for `C[C@@H]1COCCN1c1cc(C2([S@+](C)(=N)[O-])CC2)nc(-c2ccnc3[nH]ccc23)n1` [AZD-6738] were -84.1% and 8.33 µM.
Taken in the same sequence, the figures for `CN(C)C(=O)c1ccc([S+](=O)([O-])c2ccc(NC(=O)[C@@](C)(O)C(F)(F)F)c(Cl)c2)cc1` [AZD-7545] were -33.1% and 5.9 µM.
`NC(=O)Nc1cc(-c2cccc(F)c2)sc1C(=O)N[C@H]1CCCNC1` [AZD-7762]: the efficacy in the test on HCT116 [1] is -101%. In addition, the AC50 cell viability in the test on HCT116 [2] came out at 0.833 µM.
In the same order, the values of `COc1ccc(-c2ccc3c(N4CCOC[C@@H]4C)nc(N4CCOC[C@@H]4C)nc3n2)cc1CO` [AZD-8055] are -51.6% and 0.295 µM.
Taken in the same sequence, the figures for `C[C@@H](Nc1cc(F)cc(F)c1)c1cc(C(=O)N(C)C)cc2c(=O)cc(N3CCOCC3)oc12` [AZD-8186] were -78.7% and 10.5 µM.
On to `CN1C(=O)\C(=C/C(=C1/NC2=C(F)C=C(I)C=C2)C(=O)NOCCO)C` [AZD-8330], for which, in the test on HCT116 [1], the efficacy was -68.6%. This compound had an AC50 cell viability in the test with HCT116 [2] of 0.00934 µM.
Taken in the same sequence, the figures for `CCN1CCN(Cc2ccc(Nc3ncc(F)c(-c4cc(F)c5nc(C)n(C(C)C)c5c4)n3)nc2)CC1` [Abemaciclib] were -109% and 4.17 µM.
In the case of `CN(C)Cc1c(C(=O)NCCOc2ccc(C(=O)NO)cc2)oc2ccccc12` [Abexinostat], in the test on HCT116 [1], the efficacy was -91.9%. In the test on HCT116 [2], this compound came in with an AC50 cell viability of 0.263 µM.
In the same order, the values of `CC[C@@]1(O)C[C@H](O[C@H]2C[C@H](N(C)C)[C@H](O[C@H]3C[C@H](O)[C@H](O[C@H]4CCC(=O)[C@H](C)O4)[C@H](C)O3)[C@H](C)O2)c2c(cc3c(c2O)C(=O)c2c(O)cccc2C3=O)[C@H]1C(=O)OC` [Aclarubicin] are -89.2% and 3.72 µM.
Taken in the same sequence, the figures for `C\C1=C(\[C@@H](OC2=C1C=CC(=C2)O)C3=CC=C(OCCN4CCCCC4)C=C3)C5=CC=C(O)C=C5` [Acolbifene] were -94.9% and 18.6 µM.
In the same order, the values of `CC(C)C1NC(=O)C(NC(=O)C2=C3\N=C\4/C(=C(C)\C(=O)\C(=C4C(=O)NC5C(C)OC(=O)C(C(C)C)N(C)C(=O)CN(C)C(=O)C6CCCN6C(=O)C(NC5=O)C(C)C)N)OC3=C(C)C=C2)C(C)OC(=O)C(C(C)C)N(C)C(=O)CN(C)C(=O)C7CCCN7C1=O` (stereo unspecified) [Actinomycin D] are -73.8% and 0.00144 µM.
For `CC(C)(C)C(=O)OCOP(=O)(COCCn1cnc2c(N)ncnc21)OCOC(=O)C(C)(C)C` [Adefovir dipivoxil], the efficacy in the test on HCT116 [1] is -55.3%. Moreover, the AC50 cell viability in the test with HCT116 [2] turned out to be 3.32 µM.
On to `Cc1cc(O[C@@H](CCC(F)(F)F)c2ccc(C(=O)NCCC(=O)O)cc2)cc(C)c1-c1ccc(C(C)(C)C)cc1` [Adomeglivant], for which the efficacy with HCT116 [1] is -115%. In addition, the AC50 cell viability with HCT116 [2] came out at 26.3 µM.
In the same order, the values of `CN(C)C/C=C/C(=O)Nc1cc2c(Nc3ccc(F)c(Cl)c3)ncnc2cc1O[C@H]1CCOC1` [Afatinib] are -100% and 4.68 µM.

These data come from the supplement of paper PMC10290057.
